Reference: paper PMC5218480 (PLoS ONE, 2017)

Test system: MV-4-11 cells
Assay: Gene expression microarray analysis (Affymetrix PrimeView) and GSEA
Format: cell-based, human
Set-up: RFU PODN (11730768_x_at) / Fold change /veh PODN (11730768_x_at) / RFU LINC00158 (11744669_a_at) / Fold change /veh LINC00158 (11744669_a_at) / RFU DUSP10 (11751237_a_at) / Fold change /veh DUSP10 (11751237_a_at) / RFU ID3 (11757404_x_at) / Fold change /veh ID3 (11757404_x_at) / RFU PLEKHG5 (11737974_s_at) / Fold change /veh PLEKHG5 (11737974_s_at) / RFU LRRC4B (11730491_at) / Fold change /veh LRRC4B (11730491_at) / RFU GIMAP4 (11747438_a_at) / Fold change /veh GIMAP4 (11747438_a_at) / RFU KRT8 (11758183_x_at) / Fold change /veh KRT8 (11758183_x_at) / RFU CNN1 (11734310_a_at) / Fold change /veh CNN1 (11734310_a_at) / RFU VPS37D (11726825_at) / Fold change /veh VPS37D (11726825_at) / RFU C10orf10 (11716522_x_at) / Fold change /veh C10orf10 (11716522_x_at) / RFU KIR2DL2 /// KIR2DL4 /// KIR2DL5A /// KIR2DL5B /// KIR2DS1 /// KIR2DS2 /// KIR2DS3 /// KIR2DS4 /// KIR3DL3 /// KIR3DL3 /// KIR3DS1 (11738374_at) / Fold change /veh KIR2DL2 /// KIR2DL4 /// KIR2DL5A /// KIR2DL5B /// KIR2DS1 /// KIR2DS2 /// KIR2DS3 /// KIR2DS4 /// KIR3DL3 /// KIR3DL3 /// KIR3DS1 (11738374_at) / RFU C1QL1 (11718748_at) / Fold change /veh C1QL1 (11718748_at) / RFU TMPRSS4 (11747572_a_at) / Fold change /veh TMPRSS4 (11747572_a_at) / RFU HAMP (11756126_x_at) / Fold change /veh HAMP (11756126_x_at) / RFU RNFT2 (11725882_a_at) / Fold change /veh RNFT2 (11725882_a_at) / RFU NR4A2 (11747474_a_at) / Fold change /veh NR4A2 (11747474_a_at) / RFU ABCC12 (11746883_a_at) / Fold change /veh ABCC12 (11746883_a_at) / RFU TMEM136 (11760407_x_at) / Fold change /veh TMEM136 (11760407_x_at) / RFU CLDN22 /// WWC2 (11732394_at) / Fold change /veh CLDN22 /// WWC2 (11732394_at) / RFU HLA-DPB1 (11760878_x_at) / Fold change /veh HLA-DPB1 (11760878_x_at) / RFU SPINT1 (11716480_a_at) / Fold change /veh SPINT1 (11716480_a_at) / RFU GAP43 (11754022_s_at) / Fold change /veh GAP43 (11754022_s_at) / RFU A4GNT (11735810_at) / Fold change /veh A4GNT (11735810_at) / RFU PRB3 (11715151_x_at) / Fold change /veh PRB3 (11715151_x_at) / RFU TUBB4B (11761932_at) / Fold change /veh TUBB4B (11761932_at) / RFU CAPN14 (11732068_a_at) / Fold change /veh CAPN14 (11732068_a_at) / RFU TMCC2 (11721928_a_at) / Fold change /veh TMCC2 (11721928_a_at) / RFU IRGQ (11745062_a_at) / Fold change /veh IRGQ (11745062_a_at) / RFU FAM174B (11720279_a_at) / Fold change /veh FAM174B (11720279_a_at) / RFU TMPRSS4 (11748680_a_at) / Fold change /veh TMPRSS4 (11748680_a_at) / RFU FAM212B (11763350_a_at) / Fold change /veh FAM212B (11763350_a_at) / RFU PLEKHG5 (11743358_a_at) / Fold change /veh PLEKHG5 (11743358_a_at) / RFU ZSCAN30 (11745921_a_at) / Fold change /veh ZSCAN30 (11745921_a_at) / RFU CMKLR1 (11741424_a_at) / Fold change /veh CMKLR1 (11741424_a_at) / RFU LOC101060620 /// MAPK8IP1 (11723275_at) / Fold change /veh LOC101060620 /// MAPK8IP1 (11723275_at) / RFU SPTSSB (11747773_x_at) / Fold change /veh SPTSSB (11747773_x_at) / RFU PRSS12 (11739890_at) / Fold change /veh PRSS12 (11739890_at) / RFU BIN1 (11741810_x_at) / Fold change /veh BIN1 (11741810_x_at) / RFU WNT11 (11732464_a_at) / Fold change /veh WNT11 (11732464_a_at) / RFU C10orf10 (11716521_a_at) / Fold change /veh C10orf10 (11716521_a_at) / RFU C5orf56 (11738089_at) / Fold change /veh C5orf56 (11738089_at) / RFU CYB561 (11721691_x_at) / Fold change /veh CYB561 (11721691_x_at) / RFU ANKRD19P (11752326_a_at) / Fold change /veh ANKRD19P (11752326_a_at) / RFU OR2T12 /// OR2T33 /// OR2T8 (11738714_s_at) / Fold change /veh OR2T12 /// OR2T33 /// OR2T8 (11738714_s_at) / RFU VCAN (11748164_a_at) / Fold change /veh VCAN (11748164_a_at) / RFU JSRP1 (11732532_at) / Fold change /veh JSRP1 (11732532_at) / RFU KRTAP10-11 (11738290_x_at) / Fold change /veh KRTAP10-11 (11738290_x_at) / RFU MYO3A (11730013_a_at) / Fold change /veh MYO3A (11730013_a_at) / RFU EBF3 (11725865_a_at) / Fold change /veh EBF3 (11725865_a_at) / RFU CAMK2N1 (11719241_x_at) / Fold change /veh CAMK2N1 (11719241_x_at) / RFU C5orf56 (11738088_a_at) / Fold change /veh C5orf56 (11738088_a_at) / RFU OLFML3 (11715873_a_at) / Fold change /veh OLFML3 (11715873_a_at) / RFU LOC100653217 /// NTM (11731650_a_at) / Fold change /veh LOC100653217 /// NTM (11731650_a_at) / RFU MAPK11 (11762145_a_at) / Fold change /veh MAPK11 (11762145_a_at) / RFU FIZ1 (11724087_x_at) / Fold change /veh FIZ1 (11724087_x_at) / RFU OASL (11726364_x_at) / Fold change /veh OASL (11726364_x_at) / RFU SOX15 (11748057_x_at) / Fold change /veh SOX15 (11748057_x_at) / RFU CD79A (11719716_a_at) / Fold change /veh CD79A (11719716_a_at) / RFU HIST1H1D (11736915_at) / Fold change /veh HIST1H1D (11736915_at) / RFU CASKIN2 (11723855_a_at) / Fold change /veh CASKIN2 (11723855_a_at) / RFU LOC730098 (11760151_x_at) / Fold change /veh LOC730098 (11760151_x_at) / RFU OR4N2 (11742367_at) / Fold change /veh OR4N2 (11742367_at) / RFU PRRT2 (11749266_a_at) / Fold change /veh PRRT2 (11749266_a_at) / RFU SNX32 (11753110_a_at) / Fold change /veh SNX32 (11753110_a_at) / RFU CDHR5 (11726645_a_at) / Fold change /veh CDHR5 (11726645_a_at) / RFU RCAN1 (11760418_a_at) / Fold change /veh RCAN1 (11760418_a_at) / RFU FAM167A (11723789_a_at) / Fold change /veh FAM167A (11723789_a_at) / RFU FAM26E (11764081_at) / Fold change /veh FAM26E (11764081_at) / RFU ISYNA1 (11749810_s_at) / Fold change /veh ISYNA1 (11749810_s_at) / RFU ACY1 (11761880_at) / Fold change /veh ACY1 (11761880_at) / RFU 11764098_at / Fold change /veh 11764098_at / RFU SAMD14 (11745864_x_at) / Fold change /veh SAMD14 (11745864_x_at) / RFU NPB (11741838_a_at) / Fold change /veh NPB (11741838_a_at) / RFU TMPRSS6 (11731388_a_at) / Fold change /veh TMPRSS6 (11731388_a_at) / RFU KRTAP10-2 (11738614_at) / Fold change /veh KRTAP10-2 (11738614_at) / RFU ARHGAP8 /// PRR5-ARHGAP8 (11727945_x_at) / Fold change /veh ARHGAP8 /// PRR5-ARHGAP8 (11727945_x_at) / RFU KRTAP5-7 /// NADSYN1 (11734609_at) / Fold change /veh KRTAP5-7 /// NADSYN1 (11734609_at) / RFU RASL12 (11751679_a_at) / Fold change /veh RASL12 (11751679_a_at) / RFU CDKN2B (11736163_a_at) / Fold change /veh CDKN2B (11736163_a_at) / RFU PRF1 (11729649_at) / Fold change /veh PRF1 (11729649_at) / RFU, ZNF638 /// ZNF638-IT1 / Fold change vs veh, ZNF638 /// ZNF638-IT1 / RFU, PANK3 / Fold change vs veh, PANK3 / RFU, SH3YL1 / Fold change vs veh, SH3YL1 / RFU, ZEB2 / Fold change vs veh, ZEB2 / RFU, NRIP1 / Fold change vs veh, NRIP1 / RFU, PTTG1IP / Fold change vs veh, PTTG1IP / RFU, CAPN2 / Fold change vs veh, CAPN2 / RFU, MED14 / Fold change vs veh, MED14 / RFU, SNORA58 / Fold change vs veh, SNORA58 / RFU, C1orf63 / Fold change vs veh, C1orf63 / RFU, LRRFIP1 / Fold change vs veh, LRRFIP1 / RFU, NDUFAF7 / Fold change vs veh, NDUFAF7 / RFU, SLC12A2 / Fold change vs veh, SLC12A2 / RFU, IBTK / Fold change vs veh, IBTK / RFU, ESF1 / Fold change vs veh, ESF1 / Fold change vs veh, TMEM50B / RFU, TAOK1 / Fold change vs veh, TAOK1 / RFU, ACBD3 / Fold change vs veh, ACBD3 / RFU, TMA16 / Fold change vs veh, TMA16 / RFU, RWDD3 / Fold change vs veh, RWDD3 / RFU, BCAT1 / Fold change vs veh, BCAT1 / RFU, EDEM3 / Fold change vs veh, EDEM3 / RFU, TMEM33 / Fold change vs veh, TMEM33 / RFU, WDR75 / Fold change vs veh, WDR75 / RFU, AHCTF1 / Fold change vs veh, AHCTF1 / RFU, TFRC / Fold change vs veh, TFRC / RFU, ZDHHC17 / Fold change vs veh, ZDHHC17 / RFU, NOM1 / Fold change vs veh, NOM1 / RFU, ARL8B / Fold change vs veh, ARL8B / RFU, ZBTB11 / Fold change vs veh, ZBTB11 / RFU, TAMM41 / Fold change vs veh, TAMM41 / RFU, KIAA1704 /// LOC100996395 / Fold change vs veh, KIAA1704 /// LOC100996395 / RFU, ING1 / Fold change vs veh, ING1 / RFU, TRMT61B / Fold change vs veh, TRMT61B / RFU, FUBP3 / Fold change vs veh, FUBP3 / RFU, TP53 / Fold change vs veh, TP53 / RFU, TNKS2 / Fold change vs veh, TNKS2 / RFU, ZFP14 / Fold change vs veh, ZFP14 / RFU, ACTR2 / Fold change vs veh, ACTR2 / RFU, PPP3R1 / Fold change vs veh, PPP3R1 / RFU, PIK3R1 / Fold change vs veh, PIK3R1 / RFU, HNRNPA1 / Fold change vs veh, HNRNPA1 / RFU, RNF170 / Fold change vs veh, RNF170 / RFU, ZNF28 / Fold change vs veh, ZNF28 / RFU, RNGTT / Fold change vs veh, RNGTT / RFU, OGT / Fold change vs veh, OGT / RFU, BRD1 / Fold change vs veh, BRD1 / RFU, MARS / Fold change vs veh, MARS / RFU, ZNF655 / Fold change vs veh, ZNF655 / RFU, FAHD1 / Fold change vs veh, FAHD1 / RFU, BDP1 / Fold change vs veh, BDP1 / RFU, LRRCC1 / Fold change vs veh, LRRCC1 / RFU, ARID1A / Fold change vs veh, ARID1A / RFU, ZNF146 / Fold change vs veh, ZNF146 / RFU, ZNF330 / Fold change vs veh, ZNF330 / RFU, GPN3 / Fold change vs veh, GPN3 / RFU, C9orf123 / Fold change vs veh, C9orf123 / RFU, N4BP2L2 / Fold change vs veh, N4BP2L2 / RFU, ARFIP1 / Fold change vs veh, ARFIP1 / RFU, FAM179B / Fold change vs veh, FAM179B / RFU, BCL10 / Fold change vs veh, BCL10 / RFU, UHRF1BP1L / Fold change vs veh, UHRF1BP1L / RFU, BET1 / Fold change vs veh, BET1 / RFU, CNOT2 / Fold change vs veh, CNOT2 / RFU, ZNF268 / Fold change vs veh, ZNF268 / Fold change vs veh, ZNF507 / RFU, DGCR2 / Fold change vs veh, DGCR2 / RFU, WDSUB1 / Fold change vs veh, WDSUB1 / Fold change vs veh, HSP90B1 /// MIR3652 / RFU, ADSS / Fold change vs veh, ADSS / RFU, GK / Fold change vs veh, GK / RFU, ZNF148 / Fold change vs veh, ZNF148 / RFU, TAF9 / Fold change vs veh, TAF9 / RFU, SLC1A5 / Fold change vs veh, SLC1A5 / RFU, SLMO2 / Fold change vs veh, SLMO2 / RFU, ABCC4 / Fold change vs veh, ABCC4 / RFU, LOC101060439 /// RAP1B / Fold change vs veh, LOC101060439 /// RAP1B / RFU, RFX7 / Fold change vs veh, RFX7 / RFU, GTPBP10 / Fold change vs veh, GTPBP10 / RFU, CNEP1R1 / Fold change vs veh, CNEP1R1 / RFU, BIVM-ERCC5 /// ERCC5 / Fold change vs veh, BIVM-ERCC5 /// ERCC5 / RFU, ILF3 / Fold change vs veh, ILF3 / RFU 11762660_at / Fold change /veh 11762660_at / RFU VCAN (11757783_s_at) / Fold change /veh VCAN (11757783_s_at) / RFU DDX43 (11728927_at) / Fold change /veh DDX43 (11728927_at) / RFU KRT8 (11758188_x_at) / Fold change /veh KRT8 (11758188_x_at) / RFU NKD1 (11759106_at) / Fold change /veh NKD1 (11759106_at) / RFU SRD5A1 (11742802_a_at) / Fold change /veh SRD5A1 (11742802_a_at) / RFU TPSAB1 /// TPSB2 (11721975_s_at) / Fold change /veh TPSAB1 /// TPSB2 (11721975_s_at) / RFU GSTM3 (11746129_a_at) / Fold change /veh GSTM3 (11746129_a_at) / RFU IL23R (11737362_x_at) / Fold change /veh IL23R (11737362_x_at) / RFU TMEM51 (11727254_a_at) / Fold change /veh TMEM51 (11727254_a_at) / RFU PIWIL2 (11732686_x_at) / Fold change /veh PIWIL2 (11732686_x_at) / RFU ORM1 (11744905_x_at) / Fold change /veh ORM1 (11744905_x_at) / RFU CCDC152 (11743942_at) / Fold change /veh CCDC152 (11743942_at) / RFU ECM1 (11717891_a_at) / Fold change /veh ECM1 (11717891_a_at) / RFU IL23R (11748794_a_at) / Fold change /veh IL23R (11748794_a_at) / RFU TNFAIP8L3 (11732012_x_at) / Fold change /veh TNFAIP8L3 (11732012_x_at) / RFU MBOAT4 (11741988_at) / Fold change /veh MBOAT4 (11741988_at) / RFU 11764193_at / Fold change /veh 11764193_at / RFU TMEM53 (11763286_at) / Fold change /veh TMEM53 (11763286_at) / RFU MAGEB2 (11727129_at) / Fold change /veh MAGEB2 (11727129_at) / RFU TMEM200A (11744735_a_at) / Fold change /veh TMEM200A (11744735_a_at) / RFU CCDC152 (11751479_a_at) / Fold change /veh CCDC152 (11751479_a_at) / RFU FAM211A (11726209_a_at) / Fold change /veh FAM211A (11726209_a_at) / RFU RGS16 (11746705_a_at) / Fold change /veh RGS16 (11746705_a_at) / RFU VCAN (11755009_s_at) / Fold change /veh VCAN (11755009_s_at) / RFU RHOB (11743442_s_at) / Fold change /veh RHOB (11743442_s_at) / RFU RGS16 (11720943_a_at) / Fold change /veh RGS16 (11720943_a_at) / RFU RGS16 (11720944_at) / Fold change /veh RGS16 (11720944_at) / RFU, VPS4B / Fold change vs veh, VPS4B / RFU, CREB1 / Fold change vs veh, CREB1 / RFU, DNAJC13 / Fold change vs veh, DNAJC13 / RFU, GNAQ / Fold change vs veh, GNAQ / RFU, CDK5R1 / Fold change vs veh, CDK5R1 / RFU, ZRANB3 / Fold change vs veh, ZRANB3 / RFU, CUL4A / Fold change vs veh, CUL4A / RFU, CCNY / Fold change vs veh, CCNY / RFU, UFL1 / Fold change vs veh, UFL1 / RFU, COG3 / Fold change vs veh, COG3 / RFU, DIAPH2 / Fold change vs veh, DIAPH2 / RFU, SKA2 / Fold change vs veh, SKA2 / RFU, AFF3 / Fold change vs veh, AFF3 / RFU, LMF1 / Fold change vs veh, LMF1 / RFU, IPO11 / Fold change vs veh, IPO11 / RFU, DFFB / Fold change vs veh, DFFB / RFU, FOXP1 / Fold change vs veh, FOXP1 / RFU, CARD8 / Fold change vs veh, CARD8 / RFU, STRN3 / Fold change vs veh, STRN3 / RFU, ADK / Fold change vs veh, ADK / RFU, RASSF2 / Fold change vs veh, RASSF2 / RFU, WIPF1 / Fold change vs veh, WIPF1 / RFU, LARP1B / Fold change vs veh, LARP1B / RFU, RASA1 / Fold change vs veh, RASA1 / RFU, RB1 / Fold change vs veh, RB1 / RFU, PPFIA1 / Fold change vs veh, PPFIA1 / RFU, MAT2A / Fold change vs veh, MAT2A / RFU, CCT5 / Fold change vs veh, CCT5 / RFU, WDR92 / Fold change vs veh, WDR92 / RFU, CUX1 / Fold change vs veh, CUX1 / RFU, TTC7A / Fold change vs veh, TTC7A / RFU, TMEM135 / Fold change vs veh, TMEM135 / RFU, DEPTOR / Fold change vs veh, DEPTOR / RFU, CPM / Fold change vs veh, CPM / RFU, DNAJB6 / Fold change vs veh, DNAJB6 / RFU, CACNA2D3 / Fold change vs veh, CACNA2D3 / RFU, DTX4 / Fold change vs veh, DTX4 / RFU, TFCP2 / Fold change vs veh, TFCP2 / RFU, GMCL1 /// GMCL1P1 / Fold change vs veh, GMCL1 /// GMCL1P1 / RFU, AEBP2 / Fold change vs veh, AEBP2 / RFU, SNHG1 /// SNORD22 /// SNORD25 /// SNORD26 /// SNORD27 /// SNORD28 /// SNORD29 /// SNORD31 / Fold change vs veh, SNHG1 /// SNORD22 /// SNORD25 /// SNORD26 /// SNORD27 /// SNORD28 /// SNORD29 /// SNORD31 / Fold change (Aza/veh), C12orf56 (ProbeSet 11735607_a_at) / Fold change (ACY-1035/veh), C12orf56 (ProbeSet 11735607_a_at) / Fold change (Aza/veh), FGFR1OP (ProbeSet 11751329_s_at) / Fold change (ACY-1035/veh), FGFR1OP (ProbeSet 11751329_s_at) / Fold change (Aza/veh), VPS36 (ProbeSet 11739960_a_at) / Fold change (ACY-1035/veh), VPS36 (ProbeSet 11739960_a_at) / RFU SYPL1 (11715823_x_at) / Fold change /veh SYPL1 (11715823_x_at) / RFU IGFBP7 (11715501_s_at) / Fold change /veh IGFBP7 (11715501_s_at) / RFU REEP3 (11722064_at) / Fold change /veh REEP3 (11722064_at) / RFU IGLL1 (11728026_x_at) / Fold change /veh IGLL1 (11728026_x_at): dose or concentration left out as unconfirmed
Conditions: MV-4-11 cells, 48 hours

Nc1ccc(-c2cccs2)cc1NC(=O)c1ccc2c(c1)cc(C1CC1)n2CCN1CCOCC1 [ACY-1035]
Fold change /veh HAMP (11756126_x_at): 0.97
